The supplement of paper PMC10307832

Experiments:
Assay in all cases: relative viability (nuclei count vs DMSO), 5 days (fraction); higher = more cells survive
NCI-H1793 = tested on: NCI-H1793
Summary of the method: (§1)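 Lung cancer cell lines were seeded in 1536-well plates and dosed by pin tool the next day, with either a single drug or a fixed anchor-drug dose combined with five library-drug doses (not always all listed) spaced in √10 steps. Five days later, one step fixed the cells and stained their nuclei (final 0.05% Triton X-100, 1% formaldehyde, 1 ug/ml Hoechst), and nuclei were counted on 4× images. Relative viability is the nuclei count in treated wells divided by the count in vehicle wells, and each value is the median of duplicate plates.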

LK-2 = tested on: LK-2
Summary of the method: as §1

NCI-H650 = tested on: NCI-H650
Summary of the method: as §1

NCI-H2347 = tested on: NCI-H2347
Summary of the method: as §1

NCI-H1944 = tested on: NCI-H1944
Summary of the method: as §1

COR-L23 = tested on: COR-L23
Summary of the method: as §1

NCI-H1650 = tested on: NCI-H1650
Summary of the method: as §1

NCI-H727 = tested on: NCI-H727
Summary of the method: as §1

201T = tested on: 201T
Summary of the method: as §1

PC-14 = tested on: PC-14
Summary of the method: as §1

NCI-H460 = tested on: NCI-H460
Summary of the method: as §1

NCI-H838 = tested on: NCI-H838
Summary of the method: as §1

SW 1573 = tested on: SW 1573
Summary of the method: as §1

A-427 = tested on: A-427
Summary of the method: as §1

NCI-H23 = tested on: NCI-H23
Summary of the method: as §1

H3255 = tested on: H3255
Summary of the method: as §1

SW 900 = tested on: SW 900
Summary of the method: as §1

LCLC-103H = tested on: LCLC-103H
Summary of the method: as §1

LU99A = tested on: LU99A
Summary of the method: as §1

PC-3 [JPC-3] = tested on: PC-3 [JPC-3]
Summary of the method: as §1

HCC-44 = tested on: HCC-44
Summary of the method: as §1

LCLC-97TM1 = tested on: LCLC-97TM1
Summary of the method: as §1

With `O=C(O)c1ccc(-c2c[nH]c3ncc(-c4ccccc4)cc23)cc1C1CCCC1` + CC(=O)c1c(C)c2cnc(Nc3ccc(N4CCNCC4)cn3)nc2n(C2CCCC2)c1=O [Palbociclib] (partner 0.5 µM) the relative viability (NCI-H1793; first compound 0.04 µM) was 0.248, the relative viability (NCI-H1793; first compound 0.1265 µM) was 0.338 and the relative viability (NCI-H1793; first compound 0.4 µM) was 0.302. It also gave a relative viability (NCI-H1793; first compound 1.265 µM) of 0.31, a relative viability (LK-2; first compound 0.04 µM) of 0.826 and a relative viability (LK-2; first compound 0.1265 µM) of 0.768. It also gave a relative viability (LK-2; first compound 0.4 µM) of 0.771, a relative viability (LK-2; first compound 1.265 µM) of 0.646 and a relative viability (NCI-H650; first compound 0.04 µM) of 0.32. It also gave a relative viability (NCI-H650; first compound 0.1265 µM) of 0.344, a relative viability (NCI-H650; first compound 0.4 µM) of 0.312 and a relative viability (NCI-H650; first compound 1.265 µM) of 0.279. It also gave a relative viability (NCI-H2347; first compound 0.04 µM) of 0.453, a relative viability (NCI-H2347; first compound 0.1265 µM) of 0.446 and a relative viability (NCI-H2347; first compound 0.4 µM) of 0.386. The relative viability (NCI-H2347; first compound 1.265 µM) was 0.438, the relative viability (NCI-H1944; first compound 0.04 µM) was 0.349 and the relative viability (NCI-H1944; first compound 0.1265 µM) was 0.376. It also gave a relative viability (NCI-H1944; first compound 0.4 µM) of 0.315, a relative viability (NCI-H1944; first compound 1.265 µM) of 0.314 and a relative viability (COR-L23; first compound 0.04 µM) of 0.296. The relative viability (COR-L23; first compound 0.1265 µM) was 0.326, the relative viability (COR-L23; first compound 0.4 µM) was 0.308 and the relative viability (COR-L23; first compound 1.265 µM) was 0.205. For the same compound, the relative viability (NCI-H1650; first compound 0.04 µM) was 0.34, the relative viability (NCI-H1650; first compound 0.1265 µM) was 0.285 and the relative viability (NCI-H1650; first compound 0.4 µM) was 0.321. The relative viability (NCI-H1650; first compound 1.265 µM) was 0.193, the relative viability (NCI-H727; first compound 0.04 µM) was 0.676 and the relative viability (NCI-H727; first compound 0.1265 µM) was 0.662. For the same compound, the relative viability (NCI-H727; first compound 0.4 µM) was 0.652, the relative viability (NCI-H727; first compound 1.265 µM) was 0.638 and the relative viability (201T; first compound 0.04 µM) was 0.353. For the same compound, the relative viability (201T; first compound 0.1265 µM) was 0.364, the relative viability (201T; first compound 0.4 µM) was 0.341 and the relative viability (201T; first compound 1.265 µM) was 0.364. For the same compound, the relative viability (PC-14; first compound 0.04 µM) was 0.473, the relative viability (PC-14; first compound 0.1265 µM) was 0.532 and the relative viability (PC-14; first compound 0.4 µM) was 0.396. It also gave a relative viability (PC-14; first compound 1.265 µM) of 0.486, a relative viability (NCI-H460; first compound 0.04 µM) of 0.274 and a relative viability (NCI-H460; first compound 0.1265 µM) of 0.203. The relative viability (NCI-H460; first compound 0.4 µM) was 0.23, the relative viability (NCI-H460; first compound 1.265 µM) was 0.146 and the relative viability (NCI-H838; first compound 0.04 µM) was 0.189. It also gave a relative viability (NCI-H838; first compound 0.1265 µM) of 0.267, a relative viability (NCI-H838; first compound 0.4 µM) of 0.214 and a relative viability (NCI-H838; first compound 1.265 µM) of 0.215. The relative viability (SW 1573; first compound 0.04 µM) was 0.442, the relative viability (SW 1573; first compound 0.1265 µM) was 0.355 and the relative viability (SW 1573; first compound 0.4 µM) was 0.309. For the same compound, the relative viability (SW 1573; first compound 1.265 µM) was 0.268, the relative viability (A-427; first compound 0.04 µM) was 0.536 and the relative viability (A-427; first compound 0.1265 µM) was 0.526. For the same compound, the relative viability (A-427; first compound 0.4 µM) was 0.485, the relative viability (A-427; first compound 1.265 µM) was 0.48 and the relative viability (NCI-H23; first compound 0.04 µM) was 0.577. For the same compound, the relative viability (NCI-H23; first compound 0.1265 µM) was 0.491, the relative viability (NCI-H23; first compound 0.4 µM) was 0.483 and the relative viability (NCI-H23; first compound 1.265 µM) was 0.308. For the same compound, the relative viability (H3255; first compound 0.04 µM) was 0.303, the relative viability (H3255; first compound 0.1265 µM) was 0.325 and the relative viability (H3255; first compound 0.4 µM) was 0.286. It also gave a relative viability (H3255; first compound 1.265 µM) of 0.312, a relative viability (SW 900; first compound 0.04 µM) of 0.523 and a relative viability (SW 900; first compound 0.1265 µM) of 0.521. The relative viability (SW 900; first compound 0.4 µM) was 0.578, the relative viability (SW 900; first compound 1.265 µM) was 0.277 and the relative viability (LCLC-103H; first compound 0.04 µM) was 0.412. For the same compound, the relative viability (LCLC-103H; first compound 0.1265 µM) was 0.486, the relative viability (LCLC-103H; first compound 0.4 µM) was 0.465 and the relative viability (LCLC-103H; first compound 1.265 µM) was 0.469. For the same compound, the relative viability (LU99A; first compound 0.04 µM) was 0.43, the relative viability (LU99A; first compound 0.1265 µM) was 0.439 and the relative viability (LU99A; first compound 0.4 µM) was 0.375. The relative viability (LU99A; first compound 1.265 µM) was 0.344, the relative viability (PC-3 [JPC-3]; first compound 0.04 µM) was 0.534 and the relative viability (PC-3 [JPC-3]; first compound 0.1265 µM) was 0.553. For the same compound, the relative viability (PC-3 [JPC-3]; first compound 0.4 µM) was 0.538, the relative viability (PC-3 [JPC-3]; first compound 1.265 µM) was 0.499 and the relative viability (HCC-44; first compound 0.04 µM) was 0.967. The relative viability (HCC-44; first compound 0.1265 µM) was 0.938, the relative viability (HCC-44; first compound 0.4 µM) was 0.875 and the relative viability (HCC-44; first compound 1.265 µM) was 0.805. It also gave a relative viability (LCLC-97TM1; first compound 0.04 µM) of 0.267, a relative viability (LCLC-97TM1; first compound 0.1265 µM) of 0.222 and a relative viability (LCLC-97TM1; first compound 0.4 µM) of 0.187. The relative viability (LCLC-97TM1; first compound 1.265 µM) was 0.217.
